The nature of data set [1]: Solubility and fluorescence behaviour of ICG in serum and vitreous humor.
Description: ICG (Acros Organics, Fair Lawn, N.J.) was dissolved in PBS, pH 7.4, with 0.1% Tween 20 at 25° C. to make the aqueous standards. Fluorescence of a series of 1:2 dilutions were made with a spectrofluorometer beginning with a maximum concentration of 100 ng/ml down to a “blank” comprising PBS, pH 7.4, with 0.1% Tween with essentially no ICG (only trace amounts).
The nature of data set [2]: pH stability of ICG emission intensity. The data set is classed as physicochemical.

Consider `CC1(C)C(/C=C/C=C/C=C/C=C2\N(CCCCS(=O)(=O)[O-])c3ccc4ccccc4c3C2(C)C)=[N+](CCCCS(=O)(=O)[O-])c2ccc3ccccc3c21.[Na+]` [ICG, indocyanin green], for which the “solubility in serum and vitreous humor after pre-dissolution” value in data set [1] (first dissolved in PBS, pH 7.4, 0.1% Tween 20 (≧1000 ng/ml), then mixed with bovine vitreous humor or human serum) is listed as “remain in solution”. Besides, the “spectra and quantum yield in serum and vitreous humor compared to ICG in PBS with 0.1% Tween 20” value in data set [1] (first dissolved in PBS, pH 7.4, 0.1% Tween 20, then mixed with bovine vitreous humor or human serum) is “maintain its spectra and quantum yield”. In addition, in data set [1] (mixed directly with serum or vitreous humor), the “solubility when mixed directly with serum or vitreous humor” value was “not completely soluble”. The “pH range across which emission intensity is stable” value in data set [2] is recorded as 5-10 pH.

Source of the values: patent publication US20080129961A1, “METHOD AND APPARATUS FOR MEASURING QUANTITY OF A FLUOROCHROME IN A BIOLOGICAL ENVIRONMENT” (priority 2006, published 2008).
